Measured values published in paper PMC8645336, “Benchmarking a highly selective USP30 inhibitor for enhancement of mitophagy and pexophagy” (Life Science Alliance, 2021).

How the values were obtained:
Test in all cases: biochemical
Parameters in all cases: Ubiquigent DUB profiler selectivity panel, remaining enzyme activity as % of control
Conditions in all cases: read-out: % of control remaining
USP17 = molecular target: T1, USP17 (Homo sapiens, UniProt Q6R6M4)
T1 construct: gene USP17L2
T1 sequence (Q6R6M4 1-530): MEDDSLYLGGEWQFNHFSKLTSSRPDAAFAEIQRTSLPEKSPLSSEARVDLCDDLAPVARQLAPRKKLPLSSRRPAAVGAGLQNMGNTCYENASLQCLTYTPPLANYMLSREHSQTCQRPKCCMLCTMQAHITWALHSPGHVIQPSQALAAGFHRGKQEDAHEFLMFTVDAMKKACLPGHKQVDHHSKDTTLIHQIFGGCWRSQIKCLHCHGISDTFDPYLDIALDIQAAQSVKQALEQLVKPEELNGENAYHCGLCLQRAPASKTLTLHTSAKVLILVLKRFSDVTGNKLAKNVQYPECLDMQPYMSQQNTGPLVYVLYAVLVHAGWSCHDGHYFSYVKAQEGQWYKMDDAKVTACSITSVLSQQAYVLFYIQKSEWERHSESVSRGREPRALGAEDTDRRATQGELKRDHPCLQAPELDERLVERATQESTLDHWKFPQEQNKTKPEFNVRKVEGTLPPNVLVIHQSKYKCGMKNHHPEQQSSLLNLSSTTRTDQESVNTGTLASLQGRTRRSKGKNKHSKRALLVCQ
How it was run: (§1)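 In YFP-PRKN-overexpressing hTERT-RPE1 cells, 1 h antimycin A plus oligomycin A (1 μM each) with CMPD-39, then Western blot of TOMM20 ubiquitylation. Target engagement: 2 h compound, then 10 min HA-Ub-PA at 37°C, read as USP30 shift. DUB panel (>40 enzymes) screened at 1-100 μM.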

OTUD6B = molecular target: T2, OTUD6B (Homo sapiens, UniProt Q8N6M0)
T2 sequence (Q8N6M0 1-293): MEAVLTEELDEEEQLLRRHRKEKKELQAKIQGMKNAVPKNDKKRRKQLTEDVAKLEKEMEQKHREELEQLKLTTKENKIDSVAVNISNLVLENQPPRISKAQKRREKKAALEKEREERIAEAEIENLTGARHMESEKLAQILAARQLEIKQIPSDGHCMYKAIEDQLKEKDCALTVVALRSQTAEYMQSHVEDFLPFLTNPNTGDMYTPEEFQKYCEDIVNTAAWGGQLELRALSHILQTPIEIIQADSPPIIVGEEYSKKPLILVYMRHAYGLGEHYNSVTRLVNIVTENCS
How it was run: as §1

USP28 = molecular target: T3, USP28 (Homo sapiens, UniProt Q96RU2)
T3 sequence (Q96RU2 1-1077): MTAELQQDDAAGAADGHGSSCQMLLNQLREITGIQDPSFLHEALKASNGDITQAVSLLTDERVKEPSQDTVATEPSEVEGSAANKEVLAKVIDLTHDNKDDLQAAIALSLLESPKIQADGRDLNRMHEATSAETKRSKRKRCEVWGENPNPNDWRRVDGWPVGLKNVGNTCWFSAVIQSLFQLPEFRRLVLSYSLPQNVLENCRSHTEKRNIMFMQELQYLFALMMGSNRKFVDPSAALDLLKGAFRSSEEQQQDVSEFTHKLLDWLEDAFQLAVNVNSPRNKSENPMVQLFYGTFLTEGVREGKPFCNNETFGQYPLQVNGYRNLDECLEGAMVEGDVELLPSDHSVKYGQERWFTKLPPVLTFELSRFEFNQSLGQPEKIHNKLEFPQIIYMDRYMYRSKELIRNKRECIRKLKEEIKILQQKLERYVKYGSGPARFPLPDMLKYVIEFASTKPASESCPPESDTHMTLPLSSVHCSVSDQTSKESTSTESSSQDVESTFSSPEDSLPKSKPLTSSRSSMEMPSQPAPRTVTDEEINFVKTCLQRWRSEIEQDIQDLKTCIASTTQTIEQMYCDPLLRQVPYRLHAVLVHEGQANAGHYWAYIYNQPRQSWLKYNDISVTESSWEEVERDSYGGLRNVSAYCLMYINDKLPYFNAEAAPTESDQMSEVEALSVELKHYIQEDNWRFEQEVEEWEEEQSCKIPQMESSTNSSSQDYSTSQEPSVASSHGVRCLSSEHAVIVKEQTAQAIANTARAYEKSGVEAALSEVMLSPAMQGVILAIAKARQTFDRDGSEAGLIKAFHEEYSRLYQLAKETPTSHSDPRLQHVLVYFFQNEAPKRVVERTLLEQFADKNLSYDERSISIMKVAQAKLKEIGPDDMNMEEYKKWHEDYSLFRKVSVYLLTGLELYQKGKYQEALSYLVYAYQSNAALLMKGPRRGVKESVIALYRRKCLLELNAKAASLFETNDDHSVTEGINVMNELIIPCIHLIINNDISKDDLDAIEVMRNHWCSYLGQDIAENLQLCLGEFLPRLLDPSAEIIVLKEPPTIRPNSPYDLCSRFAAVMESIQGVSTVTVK
How it was run: as §1

CC(C)(C)NS(=O)(=O)c1ccc(NC(=O)[C@H](Cc2ccccc2)NC(=O)c2ccc(F)cc2)cc1 [compound 39, CMPD-39]
remaining activity at 1 µM (USP17): 110%
remaining activity at 10 µM (USP17): 119%
remaining activity at 100 µM (USP17): 102%
remaining activity at 1 µM (OTUD6B): 110%
remaining activity at 10 µM (OTUD6B): 100%
remaining activity at 100 µM (OTUD6B): 101%
remaining activity at 1 µM (USP28): 96.5%
remaining activity at 10 µM (USP28): 94.2%
remaining activity at 100 µM (USP28): 102%
